# Literature values as cited in patent US11565004B2, “In vivo imaging of matrix metalloproteinases in lung disease” (The Trustees of Columbia University in the City of New York, priority 2016, dated 2023).
# Tested on: MMPs-1, -2, -3, -7, -9, -12, and -13
smiles,measurement,value
COc1ccc(S(=O)(=O)N(Cc2cccnc2)[C@@H](C(=O)NO)C(C)C)cc1 [CGS27023A],affinities against MMPs,high affinities
